Source: patent US20120040996A1, “3-BENZOFURANYL-INDOL-2-ONE DERIVATIVES SUBSTITUTED AT THE 3 POSITION, PREPARATION THEREOF, AND THERAPEUTIC USE THEREOF” (SANOFI, priority 2009, published 2012)

Molecular target: T1, ghrelin receptor (Rattus norvegicus, UniProt O08725)
T1 construct: Strips of approximately 1 cm (5 mm wide) of gastric fundus were cut out along the longitudinal axis; from tissue; host or cells: rat gastric fundus strips
Assay: Ghrelin concentration-response on electrically stimulated isolated rat gastric fundus strips (headed "In Vivo Test")
Conditions: electric-field stimulation, ghrelin 0.1 nM-1 μM, antagonist contact time 30 minutes, read-out: IC50, antagonist activity towards the ghrelin receptor
Procedure: Male Crl CD BR rats (Charles River, Italy) weighing 150-175 g were housed in a chamber at regulated temperature (22±1° C.) and humidity (55±10%) and with a 12-hour lightness-darkness cycle, for at least 7 days before their use. Feed and water were available ad libitum. The feed was removed 18 hours before sacrificing the animals. The rats were sacrificed by cervical dislocation, and the stomach was removed surgically, opened along the shorter curvature and placed in a Krebs solution (of composition (mM): 118.4 NaCl; 4.7 KCl; 2.5 CaCl2; 3.7 NaH2PO4; 1.2 MgSO4; 25 NaHCO3; 5.6 glucose). The animals were cared for and sacrificed according to the Sanofi-Aventis international code of ethics and the international principles governing the care and treatment of laboratory animals (EEC Directive 86/609, DJL358, 1, 12 Dec. 1987). […] The contractions were recorded by computer with a data recording and analysis system (Power Lab, Chart 5) connected to isotonic transducers (Ugo Basile, Varese, Italy) via preamplifiers (Octal Bridge Amp). […] The pKb values for the antagonists were calculated according to the Cheng-Prusoff equation (Kenakin et al., Competitive Antagonism, Pharmacologic Analysis of Drug-Receptor Interaction, 3rd edition, 331-373, Philadelphia, New York; Raven: Lippincott, 1997).

T1 sequence (O08725 whole entry): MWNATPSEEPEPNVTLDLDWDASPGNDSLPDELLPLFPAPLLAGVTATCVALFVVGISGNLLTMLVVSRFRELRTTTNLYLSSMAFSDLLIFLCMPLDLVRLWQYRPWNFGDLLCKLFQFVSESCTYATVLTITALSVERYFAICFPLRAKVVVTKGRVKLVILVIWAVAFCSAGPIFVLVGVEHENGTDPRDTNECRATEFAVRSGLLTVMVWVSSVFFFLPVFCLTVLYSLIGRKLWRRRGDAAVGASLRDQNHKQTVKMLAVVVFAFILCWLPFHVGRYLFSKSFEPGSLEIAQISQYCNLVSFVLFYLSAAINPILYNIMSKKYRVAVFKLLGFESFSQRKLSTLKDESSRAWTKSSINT

IC50: 0.022 µM
SMILES: CCN1CCN(CC(=O)NC2(c3ccc4occc4c3)C(=O)Nc3cc(Cl)cc(Cl)c32)CC1 (single isomer, unassigned; (+)) [Example 1, (+)-N-[4,6-Dichloro-3-(benzofuran-5-yl)-2-oxo-2,3-dihydro-1H-indol-3-yl]-2-(4-ethylpiperazin-1-yl)acetamide]
